A short description of the series: In vivo PET/CT imaging, time-activity curves. Set-up: species or system Sprague Dawley rats. Here is the method:
Rats were anesthetized with isoflurane/oxygen gas and injected intravenously with [^18F]F-DPA (31.4 ± 2.1 MBq, n = 4 SA at the time of injection = 4.1 ± 0.4 GBq/μmol) for scanning by an Inveon multimodality PET/CT tomograph (Siemens Medical Solutions, Knoxville, TN, USA). In order to prevent eye dryness, a few drops of Oftagel (25 mg/g; Santen, Tampere, Finland) were applied to the eyes of the animals. The scanner has a 12.7 cm axial field of view (FOV) and 10 cm transaxial FOV generating images from 159 transaxial slices. The spatial resolution of the scanner is 1.4 mm according to the manufacturer’s specifications. The animals were scanned for 10 min with computed tomography (CT) for attenuation correction and anatomical reference, and immediately after that, the radiotracer was injected for a 60-min dynamic PET scan. Frames were taken at the following intervals: 30 × 10, 15 × 60, 4 × 300, and 2 × 600 s. Volume of interests (VOIs) were drawn over the whole brain, heart, lung, liver, and kidneys using Inveon Research Workplace Image Analysis software (Siemens Medical Solutions). From the VOIs, time–activity curves (TACs) were obtained and the uptake of [^18F]F-DPA was expressed as percentage of injected dose per milliliter of tissue (%inj. dose/ml).

As for `CCN(CC)C(=O)Cc1c(-c2ccc([18F])cc2)nn2c(C)cc(C)nc12` [[^18F]F-DPA], the Excretion pathway entry (in vivo TACs, high F-18 radioactivity in the intestine) was “excreted via the hepatobiliary pathway”. Also, the “Time after injection at which concentration equilibrium is reached in the brain” value (whole brain TAC, i.v. injection, 60-min dynamic PET) lay within 20 to 30 min.
